Literature values, collected in paper PMC10364322, “Evaluation of chronic drug-induced electrophysiological and cytotoxic effects using human-induced pluripotent stem cell-derived cardiomyocytes (hiPSC-CMs)” (Frontiers in Pharmacology, 2023).

Columns and labels:
[1] = test system: human embryonic stem cell-derived cardiomyocytes; parameters: method as in Hihara et al., 2014; conditions: 10 µM; 24 h-treatment; 4% in vehicle-treated wells; ref Hihara et al., 2014; cited from earlier work
patients = test system: patients; parameters: method as in Wenningmann et al., 2019; conditions: doses above 700 mg/m^2; ref Wenningmann et al., 2019; cited from earlier work
cynomolgus monkeys = test system: cynomolgus monkeys; parameters: method as in Gill et al., 2017; conditions: ref Gill et al., 2017; cited from earlier work

## N=C(N)c1ccc(OCCCCCOc2ccc(C(=N)N)cc2)cc1 [Pentamidine]
[1]
  FPDc prolongation: 62%

## COc1cccc2c1C(=O)c1c(O)c3c(c(O)c1C2=O)C[C@@](O)(C(=O)CO)C[C@@H]3O[C@H]1C[C@H](N)[C@H](O)[C@H](C)O1 [Doxorubicin]
patients
  congestive heart failure, share of patients: up to 48%

## COc1nc(N)nc2c1ncn2[C@@H]1O[C@H](COP(=O)(N[C@@H](C)C(=O)OCC(C)(C)C)Oc2cccc3ccccc23)[C@@H](O)[C@@]1(C)O (stereo partly drawn) [BMS-986094]
Cynomolgus monkeys
  estimated dose that caused cardiotoxicity: 3 µM
